Experimental data published in patent US20230345975A1, “COMPOSITIONS AND METHODS OF PRESERVING MEAT SUBSTITUTES” (Wisconsin Alumni Research Foundation, priority 2016, published 2023).
Entries after “also recorded” stand apart in the source; their conditions may differ. Where two headings read alike, the source gives them in different places.

Columns and labels:
[1] = molecular target: plant Hb (soybean hemoglobin; Lba) in meat analog (Glycine max, UniProt P02238); test: Color stability of meat analog during refrigerated light display
Procedure: FIG. 1—Color stability of meat analog. Treatments: Water (W); 2.5 mmol/kg tissue Niacin (NA). Packaging: High oxygen package (80% O2, 20% CO2). Water content: 3% water capacity. Days under light (˜300 ft): 4 days under light display at 1-3° C.
FIG. 3—Effect of high oxygen during packaging. […] W-water added. All samples were stored at 1-3° C. during light display (300 foot candles).
The niacin can also be added to the solid plant protein/plant fat matrix already containing the added plant Hb. There is approximately 150 μmol of plant heme/kg meat analog. Therefore, a targeted final concentration of niacin would be 150 μmol/kg meat analog, which is equivalent to 18.5 mg niacin per kg meat analog.
Niacin is added to the meat analog already containing the plant Hb (soybean hemoglobin; Lba) and the product is stored under lights in high oxygen packaging during 4 days of refrigerated storage.

[2] = cited from earlier work
[3] = cited from earlier work; remark: listed apart in the source
soybean Hb (Lba) = soybean Hb (Lba) (Glycine max, UniProt P02238); test: Redness (a-value) of Lba solutions after exposure to 35 fc of light for 4 days; settings: for Redness (a-value) at day 4: 35 fc light, 4 days, main effect over pH
Procedure: FIG. 2—Effect of pH and different molar ratios of niacin to soybean Hb on the redness of Lba solutions. Measurement after exposure to 35 fc of light for 4 days
100 grams of meat analog containing a 3:1 dose of niacin would provide 5.9 mg niacin; a 6:1 dose would provide 11.8 mg niacin.

Sequence of soybean Hb (Lba) (P02238 whole entry): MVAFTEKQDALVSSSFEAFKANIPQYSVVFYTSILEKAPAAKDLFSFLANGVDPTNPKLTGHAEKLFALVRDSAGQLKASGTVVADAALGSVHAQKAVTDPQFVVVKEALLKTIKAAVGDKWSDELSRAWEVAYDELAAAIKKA
Sequence of plant Hb (soybean hemoglobin; Lba) in meat analog (P02238 whole entry): as above

Compound: O=C1O[C@H]([C@@H](O)CO)C(O)=C1O [Ascorbic acid]
- color stabilization of meat analog ([1]; high oxygen packaging 80% O2/20% CO2, light display 300 foot candles, 1-3° C.): did not stabilize color

Compound: N[C@@H](Cc1c[nH]cn1)C(=O)O [histidine, Histidine]
- pKa ([2]; buffer): ~6
- pKa of the conjugate acid (protonated form) of the imidazole side chain [2]: approximately 6.0

Compound: O=C(O)c1cccnc1 [niacin, nicotinic acid]
- Tolerable Upper Intake Level (UL) ([3]; European Food Safety Authority): 10 mg/day
- Tolerable Upper Intake Level (UL) ([3]; Food and Nutrition Board of the U.S. Institute of Medicine): 35 mg/day
- stabilization of red color of Lba solution versus control with no niacin (soybean Hb (Lba); 1:1 (niacin:Lba) ratio): stabilized red color better than control
- Redness (a-value) at day 4 (soybean Hb (Lba); niacin:Lba molar ratio 1:1): 4.10c
- Redness (a-value) at day 4 (soybean Hb (Lba); niacin:Lba molar ratio 3:1): 5.35b
- Redness (a-value) at day 4 (soybean Hb (Lba); niacin:Lba molar ratio 6:1): 5.79a
- color retention of meat analog ([1]; 2.5 mmol/kg niacin, high oxygen package (80% O2, 20% CO2), 4 days under light display at 1-3° C.): retains a superior color; also recorded: retain a pink color for four days
- time for which meat analog maintained color ([1]; storage entirely in 80% O2/20% CO2, light display 300 foot candles, 1-3° C.): ≤ 11 days
- ability to stabilize color in meat analog after change of packaging ([1]; transferred from 80% O2/20% CO2 at day 4 to air-permeable overwrap, assessed at day 8): lost

Compound: Imidazole
- pKa as an acid ([2]; acidic proton on N-1): 14.5
- pKa of the conjugate acid (pKBH+) ([2]; as a base, basic site N-3): approximately 7
